Laboratory results: patent US11414387B2, “Oxoacridinyl acetic acid derivatives and methods of use” (Stingthera, Inc., priority 2017, dated 2022)

Key:
STING protein = STING protein (Homo sapiens (Human), UniProt Q86WV6, H232R); experiment: Cell based reporter assay of IRF activation (IRF-luciferase), THP1-dual-KI R232; details: read-out: THP1-dual-KI R232_IRF(Luciferase)_Activity Maximum measured (%)
mSTING-R232 = mSTING-R232 (Mus musculus, UniProt Q3TBT3); experiment: STING differential scanning fluorimetry (DSF) assay, mouse STING; details: net shift in melting temperature
Procedure: A STING DSF assay was performed to determine protein thermostability shift in response to small molecule ligand binding. A STING thermostability shift assay based on differential scanning fluorimetry was used to measure (1) the net shift in melting temperature (ΔTm)between the apo and ligand-bound states of the STING protein and (2) the concentration of the thermal denaturation transition (EC50) as a surrogate measure of binding affinity (K). […] Protein in assay buffer was transferred to a 384 well plate and incubated with the hydrophobic fluorescent dye SYBR Orange. A temperature ramp was applied to the plate and the resulting dye fluorescence was plotted as a function of temperature. The first derivative of this function (dF/dT) was then used to extrapolate the melting temperature of the protein at various concentrations of compound and determine the thermal denaturation profile of a protein/compound complex.
• 1. Protein construct (affinity tag removal vs SUMO-fusion construct) • 2. Protein concentration • 3. Dye concentration • 4. Buffer • 5. Thermal ramp velocity • 6. DMSO tolerance • 7. Compound titration parameters • 8. […] 5 μM purified Target STING Protein • 3. 8 μM Sypro Orange Dye • 4. Buffer: 100 mM NaCl, 30 mM HEPES, pH 7.5 • 5. Thermal Ramp: 0.5° C./min • 6. <1% DMSO • 7. 11 point, 2 fold dilution, duplicate, 300 μM high concentrations • 8.

hSTING-WT = hSTING-WT (Homo sapiens (Human), UniProt Q86WV6, H232R); experiment: Radiometric filtration binding competition assay, hSTING-WT
hSTING-R232 = hSTING-R232 (Homo sapiens (Human), UniProt Q86WV6, H232R); experiment: STING differential scanning fluorimetry (DSF) assay, WT human STING; details: WT (R232) human STING aa140-379, net shift in melting temperature
mSTING = mSTING (Mus musculus, UniProt Q3TBT3); experiment: Radiometric filtration binding competition assay, mSTING
Procedure: A radiometric filtration binding competition assay was performed to quantify the binding affinity of compounds of the present application for the human or mouse STING protein, or associated HAQ human isoform. […] The resulting dose response was fit by non-linear regression to determine an IC50 value, from which a Ki value for each compound was extrapolated.
The resulting complexes were then filtered, dried, and scintillation fluid was added and the remaining radio signal was measured to determine the degree of compound ligand inhibition. This assay format was optimized for both the WT and HAQ isoforms of the human protein and the mouse orthologue protein.
Probe Concentration: Minimum concentration that achieved max assay window • g. Assay Format: Scintillation Proximity Bead or Filtration Binding Plate • h. […] Assay incubation times for successive incubation steps
WT-hSWAT: WT_FBA_HIS-SUMO-hSWAT IC50 (μM) (“WT”=Wild-type); HAQ-hSWAT: HAQ_FBA_HIS-SUMO-hSWAT IC50 (μM) (“HAQ”=human HAQ allele of STING protein); and WT-mSWAT: MOUSE_FBA_HIS-SUMO-mnSWAT IC50 (μM) which is the mouse isoform of STING protein.

hSTING-R232, sequence (Q86WV6 140-379 H232R): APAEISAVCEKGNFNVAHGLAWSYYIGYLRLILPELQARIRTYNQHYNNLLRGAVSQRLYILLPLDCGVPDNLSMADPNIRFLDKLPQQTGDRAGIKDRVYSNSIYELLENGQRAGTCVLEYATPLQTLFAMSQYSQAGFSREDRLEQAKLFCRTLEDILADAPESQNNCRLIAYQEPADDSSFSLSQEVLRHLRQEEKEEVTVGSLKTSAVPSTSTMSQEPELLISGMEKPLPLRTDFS
hSTING-WT, sequence (Q86WV6 140-379 H232R): as above
STING protein, sequence (Q86WV6 whole entry H232R): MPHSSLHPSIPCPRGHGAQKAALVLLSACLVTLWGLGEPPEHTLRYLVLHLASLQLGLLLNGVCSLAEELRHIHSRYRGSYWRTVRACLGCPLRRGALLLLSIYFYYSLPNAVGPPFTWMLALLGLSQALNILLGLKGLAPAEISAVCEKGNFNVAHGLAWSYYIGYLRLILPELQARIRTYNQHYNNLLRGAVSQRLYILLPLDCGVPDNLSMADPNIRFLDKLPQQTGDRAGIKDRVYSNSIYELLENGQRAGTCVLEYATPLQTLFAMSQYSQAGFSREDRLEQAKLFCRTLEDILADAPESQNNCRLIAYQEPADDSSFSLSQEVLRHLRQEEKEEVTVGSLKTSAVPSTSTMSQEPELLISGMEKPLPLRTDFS

Emax (STING protein) [%]	MOUSE DSF_6xHIS-SUMO Tm Shift (° C.) (mSTING-R232)	IC50 (hSTING-WT) [µM]	WT_DSF_hSWAT Tm Shift (° C.) (hSTING-R232)	IC50 (mSTING) [µM]	SMILES
< 5	D (“D” > 15° C.)	100 to 300	C (“C” = 2-7° C,)		O=C(O)Cn1c2cc(-c3cccc(Cl)c3)ccc2c(=O)c2ccc(Cl)c(Cl)c21 [Compound 155]
	B (“B” = 0-5° C.)	> 300	B (“B” = 0-2° C.)		O=C(O)Cn1c2cc(NC3CCNCC3)ccc2c(=O)c2ccc(Cl)c(Cl)c21 [Compound 143]
< 5	D (“D” > 15° C.)	20 to 100	C (“C” = 2-7° C,)		CC1(C)CCCC(Nc2ccc3c(=O)c4ccc(Cl)c(Cl)c4n(CC(=O)O)c3c2)C1 (stereo not shown) [Compound 139]
< 5	D (“D” > 15° C.)	< 20	C (“C” = 2-7° C,)		CC1(C)CCCC(c2ccc3c(=O)c4ccc(Cl)c(Cl)c4n(CC(=O)O)c3c2)C1 (stereo not shown) [Compound 158]
	B (“B” = 0-5° C.)				NC(=O)Cn1c2ccccc2c(=O)c2ccc(Cl)c(Cl)c21 [Compound 146]
25 to 50	C (“C” = 5-15° C.)	20 to 100	B (“B” = 0-2° C.)		CC(C)c1ccc2c(=O)c3ccc(Br)c(Cl)c3n(CC(=O)O)c2c1 [Compound 170]
5 to 25	D (“D” > 15° C.)	100 to 300	C (“C” = 2-7° C,)		Cc1ccc(-c2ccc3c(=O)c4ccc(Cl)c(Cl)c4n(CC(=O)O)c3c2)cc1 [Compound 154]
5 to 25	D (“D” > 15° C.)	20 to 100	C (“C” = 2-7° C,)		Cc1ccc(-c2ccc3c(=O)c4ccc(Cl)c(Cl)c4n(CC(=O)O)c3c2)cc1F [Compound 163]
5 to 25	C (“C” = 5-15° C.)	100 to 300	C (“C” = 2-7° C,)		O=C(O)Cn1c2cc(NCCN3CCc4ccccc43)ccc2c(=O)c2ccc(Cl)c(Cl)c21 [Compound 150]
< 5	C (“C” = 5-15° C.)	100 to 300	A (“A” < 0° C.)		O=C(O)Cn1c2cc(-c3cccc(Cl)n3)ccc2c(=O)c2ccc(Cl)c(Cl)c21 [Compound 162]
> 50	C (“C” = 5-15° C.)	20 to 100	C (“C” = 2-7° C,)		CC(C)(C)CNc1ccc2c(=O)c3ccc(Cl)c(Cl)c3n(CC(=O)O)c2c1 [Compound 138]
	B (“B” = 0-5° C.)	20 to 100	A (“A” < 0° C.)		Cc1ccc2c(=O)c3ccc(Cl)cc3n([C@@H](C)C(=O)O)c2c1 [Compound 180]
< 5	C (“C” = 5-15° C.)	100 to 300	C (“C” = 2-7° C,)		O=C(O)Cn1c2cc(NC3CCOCC3)ccc2c(=O)c2ccc(Cl)c(Cl)c21 [Compound 142]
< 5	B (“B” = 0-5° C.)	20 to 100	B (“B” = 0-2° C.)		CC(C)c1ccc(-c2ccc3c(c2)c(=O)c2ccc(Cl)c(Br)c2n3CC(=O)O)cc1 [Compound 109]
< 5	B (“B” = 0-5° C.)	100 to 300	A (“A” < 0° C.)		Cc1cc2c(cc1F)c(=O)c1ccc(Cl)c(Cl)c1n2CC(=O)O [Compound 135]
5 to 25	D (“D” > 15° C.)	20 to 100	C (“C” = 2-7° C,)		O=C(O)Cn1c2cc(-c3ccc(F)cc3)ccc2c(=O)c2ccc(Cl)c(Cl)c21 [Compound 153]

Emax (STING protein) [%]	MOUSE DSF_6xHIS-SUMO Tm Shift (° C.) (mSTING-R232)	IC50 (hSTING-WT) [µM]	WT_DSF_hSWAT Tm Shift (° C.) (hSTING-R232)	IC50 (mSTING) [µM]	SMILES
< 5	D (“D” > 15° C.)	20 to 100	C (“C” = 2-7° C,)		CC1(C)CCC=C(c2ccc3c(=O)c4ccc(Cl)c(Cl)c4n(CC(=O)O)c3c2)C1 [Compound 157]
	A (“A” < 0° C.)	> 300	A (“A” < 0° C.)		COc1cccc2c(=O)c3ccccc3n(CC(=O)O)c12 [Compound 131]
< 5	B (“B” = 0-5° C.)	> 300	B (“B” = 0-2° C.)		CC(C)c1ccc2c(=O)c3ccc(Cl)c(Cl)c3n(C)c2c1 [Compound 174]
	A (“A” < 0° C.)	> 300			CC(C(=O)O)n1c2ccccc2c(=O)c2ccc(Cl)c(Cl)c21 (stereo not shown) [Compound 141]
	C (“C” = 5-15° C.)	> 300	B (“B” = 0-2° C.)		O=C(O)Cn1c2ccccc2c(=O)c2ccc(F)c(Br)c21 [Compound 173]
< 5	C (“C” = 5-15° C.)	100 to 300	C (“C” = 2-7° C,)		O=C(O)Cn1c2cc(N3CCc4ccccc43)ccc2c(=O)c2ccc(Cl)c(Cl)c21 [Compound 144]
	C (“C” = 5-15° C.)	> 300	B (“B” = 0-2° C.)		O=C(O)Cn1c2ccccc2c(=O)c2cccc(Br)c21 [Compound 130]
	B (“B” = 0-5° C.)	100 to 300	A (“A” < 0° C.)		Cc1ccc2c(=O)c3ccc(Cl)cc3n([C@H](C)C(=O)O)c2c1 [Compound 179]
< 5		> 300	B (“B” = 0-2° C.)	> 300	COc1c(Cl)c(N)cc2c(=O)c3ccccc3n(CC(=O)O)c12 [Compound 316]
	B (“B” = 0-5° C.)	100 to 300	A (“A” < 0° C.)		COc1ccc2c(c1C)c(=O)c1ccc(Cl)c(Cl)c1n2CC(=O)O [Compound 133]
> 50		20 to 100	D (“D” > 7° C.)	20 to 100	COc1c(Cl)ccc2c(=O)c3ccc(C4CCCOC4)cc3n(CC(=O)O)c12 (stereo not shown) [Compound 253]
	C (“C” = 5-15° C.)	> 300	B (“B” = 0-2° C.)		O=C(O)Cn1c2cc(C(F)(F)F)ccc2c(=O)c2ccc(Cl)c(Cl)c21 [Compound 165]
> 50		20 to 100	D (“D” > 7° C.)	< 20	COc1c(Cl)ccc2c(=O)c3ccc(-c4cccc(N)c4)cc3n(CC(=O)O)c12 [Compound 275]
< 5		> 300	B (“B” = 0-2° C.)	> 300	COc1c(Cl)ccc2c(=O)c3cc(O)c(C(C)C)cc3n(CC(=O)O)c12 [Compound 317]
5 to 25		20 to 100	C (“C” = 2-7° C,)	100 to 300	CCCCCCOc1c(Cl)ccc2c(=O)c3ccccc3n(CC(=O)O)c12 [Compound 303]
> 50		20 to 100	C (“C” = 2-7° C,)	20 to 100	C=CCOc1c(Cl)ccc2c(=O)c3ccccc3n(CC(=O)O)c12 [Compound 273]
